The subject of data set [1] is HCT116 cells (Securin+/+, securin parental cell line HCT116 FB). As to the kind of experiment: Growth inhibition of securin parental cells (SRB, 5 days). Format: cell-based. To be noted: Homo sapiens, HCT-116, 120 h. On the procedure:
(§1) IC50 analysis was performed for selected fused heterobicyclic 2-aryl or 2-heteroarylthiazolyl compounds that were tested on HCT116 cells and Securin “knock out” cell lines.
(§2) Cell Culture—HCT116 and securin “knock out” cells. HCT116 and securin “knock out” cells (D8 and F3) were grown in RPMI+5% fetal bovine serum and gentamycin. They were maintained in a humidified 37° C. incubator with 5% CO2. Since the securin “knock out” cells have active chromosomal instability, cells were used at a low passage number of 2-13 passages. At or before passage 13 a new vial of cells was thawed and used for the screen. Cell seeding—HCT116 cells and securin “knock out” cells were trypsinized and suspenended in RPMI+5% FBS at a density of 27,000 cells/mL. HCT116 and securin “knock out” cells were seeded separately in wells of a 96-well plate (Falcon Cat # 35-3872) at a cell density of 4000 cells per well. Cells were seeded in 150 μL of RPMI media containing 5% FBS and gentamycin. Cell seeding was performed under aseptic conditions. Cells were allowed to attach and grow overnight in a humidified 37° C. incubator.
(§3) Compound Dilution and Dispensation. A series of stock solutions, 10 mg/ml of 2-aryl- or 2-heteroarylthiazolyl compounds to be tested, were brought to room temperature. The compounds were diluted 1:50 in RPMI+5% FBS (Highest concentration 200 μg/mL). The compounds were then serially diluted 1:3 across a deep-well titration plate resulting in final concentrations in the plate of 200, 66.7, 22.2, 7.4, 2.4, 0.8 0.27, 0.091, 0.03, 0.01, and 0.0034 μg/mL with one well left without a compound. 50 μL of this dilution series was added to the 150 μL of cells to result in a final concentration of compound in with the cells of 50, 16.6, 5.5, 1.8, 0.6, 0.2, 0.068, 0.023, 0.0076, 0.0025, and 0.00084 μg/mL. The dilution and addition of compounds to the plates is performed using a Multimek 96 Robot (Beckman Coulter).
(§4) Incubation and analysis. After dosing, the cells in the 96 well plates were returned to the humidified 37° C. incubator. The compounds remained on the cells for 5 days. After 5 days, the cells were fixed to the plates with the addition of 50 μL of 50% (vol/vol) Trichloro Acetic Acid ([…]). The cells were fixed at 4° C. for 1 hour. The plates were washed 5 times in distilled water and allowed to dry. The cells were stained with 0.4% sulforhodamine B (Sigma) in 1% acetic acid. The cells were stained for 15 minutes at room temperature. The plates were then washed 3 times in 1% acetic acid. The plates were dried and the dye was solubilized in 10 mM Tris at pH 8.0. The plates were read on the Absorbence 560 setting on a Victor^2 V Model 1420 Multilabel HTS counter (Perkin Elmer).
(§5) Analysis of Results—IC50 data. Absorbence data was read off of the Victor and was converted to a percentage of the control (untreated) values. IC50 values were graphed and the point at which a 50% inhibition of the control level was determined. […] If the model was not able to determine an IC50, the IC50 was assigned to the lowest concentration that gives a 50% or greater decrease in absorbence compared to control levels. If the calculated IC50 value for a cell line exceeds the top concentration for the assay (typically 50 μg/mL), the assay was scored as >50.

Data set [2] deals with securin "knock out" cells D8 (Securin−/−). Kind of data set: Growth inhibition of securin knock out cells D8 (SRB, 5 days). Format: cell-based. To be noted: for IC50: 120 h, securin knock out D8 cells, 5 days, SRB; for Selectivity Ratio D8: IC50 HCT116 / IC50 securin KO D8. As to the method:
as §1, §2, §3, §4, §5
(§6) Selectivity Ratio. The Selectivity Ratio is the ratio of IC50s between the parent cell line and the knock out cell line and is always a positive number and is typically an integer.

For data set [3], the system named is securin "knock out" cells F3 (Securin−/−). Kind of data set: Growth inhibition of securin knock out cells F3 (SRB, 5 days). Format: cell-based. To be noted: for IC50: 120 h, securin knock out F3 cells, 5 days, SRB; for Selectivity Ratio F3: IC50 HCT116 / IC50 securin KO F3. On the procedure:
as §1, §2, §3, §4, §5, §6

Data set [4] relates to xenografts of a human breast carcinoma cell line (MDA-MB-361). As to the kind of experiment: In-vivo activity in tumor xenografts. On the procedure: Selected fused heterobicyclic 2-aryl- or 2-heteroarylthiazolyl compounds of formula I were tested for their activity in a securin parental cell line (HCT116 FB) and a securin knockout (KO) cell line. […] The in-vivo activity of selected fused heterobicyclic 2-arylarylthiazolyl compounds of formula I was studied in cells growing as xenografts in athymic (nude) mice. The effect of Examples 5-7 and 10 was studied in xenografts of a human breast carcinoma cell line (MDA-MB-361).
In-vivo Activity in Tumor Xenografts. The effectiveness of Examples 5-7 versus Vincristine at controlling tumor growth was studied and the results are summarized in Table 2 and FIG. 1. The 2-arylthiazolyl compounds were formulated 0.5% Methocel™ (methylcellulose) and 0.4% Tween 80™ (polysorbate-80 and oleic acid) and administered daily orally (PO), by gavage or intraperiotenially (IP) by syringe. Tumor mass [(length×width^2)/2] was determined every 7 days. Inhibition of tumor growth was calculated relative to conventional (vehicle treated) controls.

Where [5] appears, read: 0.8 mg/kg/dose IP, days 1, 5 and 9.
[6] abbreviates: 20 mg/kg/dose PO, days 1 through 20.
Setting [7] is: 50 mg/kg/dose PO, days 1 through 20.

Broadly, the IC50 is the concentration that inhibits the measured activity by half.

Turning to `O=[N+]([O-])c1cc(N2CCCC2)ccc1-c1nc2c(s1)C(O)CNC2` (stereo not shown) [Example 15, 2-(2-nitro-4-pyrrolidin-1-yl-phenyl)-4,5,6,7-tetrahydro[1,3]thiazolo[4,5-c]pyridin-7-ol], the concentration for half-maximal inhibition (IC50) in data set [1] stood at 28.4 µM. In addition, in data set [2], the IC50 amounted to 2.95 µM and the “Selectivity Ratio D8” value is given as 10. In addition, in data set [3], the IC50 came out at 4.6 µM and the “Selectivity Ratio F3” value was 6.
For `CN1Cc2nc(-c3ccc(N(C)C)cc3)sc2C(O)C1` (stereo not shown) [Example 1, 2-(4-dimethylamino-phenyl)-5-methyl-4,5,6,7-tetrahydro[1,3]thiazolo[4,5-c]pyridine-7-ol] the same measures were 23.9 µM, 2.48 µM, 10, 3.07 µM and 8.
The corresponding values for `CN(C)c1ccc(-c2nc3c(s2)C(O)CNC3)cc1` (racemic) [Example 2, 2-(4-dimethylamino-phenyl)-4,5,6,7-tetrahydro[1,3]thiazolo[4,5-c]pyridin-7-ol] are 86.4 µM, 0.931 µM, 93, 1.28 µM and 68.
As to `Nc1cc(N2CCCC2)ccc1-c1nc2c(s1)C(O)CNC2` (stereo not shown) [Example 14, 2-(2-amino-4-pyrrolidin-1-yl-phenyl)-4,5,6,7-tetrahydro[1,3]thiazolo[4,5-c]pyridin-7-ol], the IC50 worked out at 48.1 µM in data set [1], 0.0379 µM in data set [2] and 0.0486 µM in data set [3]. The “Selectivity Ratio D8” value in data set [2] is recorded as 1269. The “Selectivity Ratio F3” value in data set [3] worked out at 990.
On to `CN(C)c1ccc(-c2nc3c(s2)[C@@H](O)CNC3)cc1` [Example 4, (S)-2-(4-dimethylamino-phenyl)-4,5,6,7-tetrahydro[1,3]thiazolo[4,5-c]pyridin-7-ol], for which the IC50 in data set [1] came to 169 µM. Besides, in data set [2], the IC50 is 2.19 µM and the “Selectivity Ratio D8” value is given as 77. Further, in data set [3], the 50% inhibitory concentration (IC50) was 3.39 µM and the “Selectivity Ratio F3” value was 50.
As for `OCc1cc(N2CCCC2)ccc1-c1nc2c(s1)C(O)CNC2` (racemic) [Example 10, (7R,7S)-2-(2-hydroxymethyl-4-pyrrolidin-1-yl-phenyl)-4,5,6,7-tetrahydro[1,3]thiazolo[4,5-c]pyridin-7-ol], the IC50 in data set [1] is 80.6 µM. Also, in data set [2], the “selectivity ratio (IC50 HCT116 FB/IC50 securin KO), in words” value was “high selectivity ratio”; the IC50 is 0.0808 µM; the “Selectivity Ratio D8” value is reported as 998. In addition, in data set [3], half-maximal inhibition (IC50) was put at 0.0944 µM and the “Selectivity Ratio F3” value is listed as 854.
As to `CN(C)c1ccc(-c2nc3c(s2)[C@H](O)CNC3)cc1` [Example 3, (R)-2-(4-dimethylamino-phenyl)-4,5,6,7-tetrahydro[1,3]thiazolo[4,5-c]pyridin-7-ol], the IC50 is 66.4 µM in data set [1], 0.395 µM in data set [2] and 0.555 µM in data set [3]. Further, in data set [2], the “Selectivity Ratio D8” value amounted to 168. Further, the “Selectivity Ratio F3” value in data set [3] stood at 120.
For `CN(C)c1ccc(-c2nc3c(s2)C(O)COC3)cc1` (stereo not shown) [Example 17, 2-[4-(dimethylamino)phenyl]-6,7-dihydro-4H-pyrano[3,4-d][1,3]thiazol-7-ol] the same measures were 51.1 µM, 1.12 µM, 1.53 µM, 46 and 33.
On to `CN(C)c1ccc(-c2nc3c(s2)C(O)COC3)cc1Br` (stereo not shown) [Example 16, 2-[3-bromo-4-(dimethylamino)phenyl]-6,7-dihydro-4H-pyrano[3,4-d][1,3]thiazol-7-ol], for which, in data set [1], the 50% inhibitory concentration (IC50) came to 41.6 µM. Further, in data set [2], the IC50 amounted to 14.3 µM and the “Selectivity Ratio D8” value is given as 3. Besides, in data set [3], the IC50 stood at 15.2 µM and the “Selectivity Ratio F3” value was 3.
As to `CC[C@]1(O)C[C@H]2CN(CCc3c([nH]c4ccccc34)[C@@](C(=O)OC)(c3cc4c(cc3OC)N(C=O)[C@H]3[C@@](O)(C(=O)OC)[C@H](OC(C)=O)[C@]5(CC)C=CCN6CC[C@]43[C@@H]65)C2)C1` [Vincristine, reference compound], in data set [4] (setting [5]), the “% T/C Day 7” value is on record as 80%, the “Relative Tumor Growth Day 7” value turned out to be 1.33, the “% T/C Day 14” value is on record as 43% and the “Relative Tumor Growth Day 14” value is listed as 2.14. Besides, in data set [4] (setting [5]), the “% T/C Day 21” value turned out to be 58% and the “Relative Tumor Growth Day 21” value amounted to 5.29.
For `OCc1cc(N2CCCC2)ccc1-c1nc2c(s1)[C@H](O)CNC2` [Example 11, (7R)-2-(2-hydroxymethyl-4-pyrrolidin-1-yl-phenyl)-4,5,6,7-tetrahydro[1,3]thiazolo[4,5-c]pyridin-7-ol], the IC50 in data set [1] stood at 91.4 µM. Moreover, in data set [2], the IC50 is 0.0406 µM and the “Selectivity Ratio D8” value came to 2251. Also, in data set [3], the half-inhibitory concentration (IC50) turned out to be 0.0483 µM and the “Selectivity Ratio F3” value stood at 1892.
In the case of `COC(=O)c1cc(N2CCCC2)ccc1-c1nc2c(s1)C(O)CNC2` (stereo not shown) [Example 13, Methyl 5-(4-pyrrolidin-1-yl)-2-(7-hydroxy-4,5,6,7-tetrahydro[1,3]thiazolo[4,5-c]pyridin-2-yl)benzoate], in data set [1], the IC50 amounted to 59.2 µM. Further, in data set [2], the half-inhibitory concentration (IC50) stood at 0.342 µM and the “Selectivity Ratio D8” value turned out to be 173. In addition, in data set [3], the midpoint of inhibition, the IC50, lay at 0.516 µM and the “Selectivity Ratio F3” value was 115.
In the case of `OC1CCCc2nc(-c3ccc(N4CCCC4)cc3)sc21` (stereo not shown) [2-(4-pyrrolidiny-1-ylphenyl)-4,5,6,7-tetrahydro-1,3-benzothiazol-7-ol, reference compound], in data set [4] (setting [6]), the “S/T = # of Survivors/# of Treated on Day +21 post tumor staging” value is listed as 10/10, the “% T/C Day 7” value is 101%, the “Relative Tumor Growth Day 7” value turned out to be 1.67 and the “% T/C Day 14” value came to 109%. Besides, in data set [4] (setting [6]), the “Relative Tumor Growth Day 14” value was 5.48, the “% T/C Day 21” value turned out to be 132% and the “Relative Tumor Growth Day 21” value amounted to 12.07. Moreover, in data set [4] (setting [7]), the “S/T = # of Survivors/# of Treated on Day +21 post tumor staging” value was 10/10, the “% T/C Day 7” value was found to be 95%, the “Relative Tumor Growth Day 7” value came to 1.57 and the “% T/C Day 14” value stood at 78%. Besides, in data set [4] (setting [7]), the “Relative Tumor Growth Day 14” value is listed as 3.93, the “% T/C Day 21” value is recorded as 95% and the “Relative Tumor Growth Day 21” value is 8.73.

The values are drawn from US20090270447A1, “2-Aryl-and 2-Heteroarylthiazolyl Compounds, Methods for Their Preparation and Use Thereof” (Wyeth, priority 2008, published 2009).
